# How the values were obtained:
# [1] = test system: circulating cytokines or chemokines; assay: Circulating cytokines or chemokines after intratumoral treatment; type: in vivo, mouse; conditions: systemic
# MC38 or B16.OVA cells = assay: Single-agent repeated intratumoral injections in mice bearing bilateral tumors; type: in vivo, mouse; conditions: injected tumor
# Description: Mouse tumor models. […] Female mice were used at 8-12 weeks of age and housed under specific pathogen-free conditions. The abscopal effect was studied by injecting 4×10^5 MC38 or B16.OVA cells subcutaneously (s.c.) into the right flank of C57BL/6 mice, whereas the left flank received an injection (s.c.) of 2×10^5 (MC38) or 1.25×10^5 (B16.OVA) cancer cells. When right tumors reached a tumor volume of 80-100 mm^3 (approximately one week after tumor inoculation), mice were randomized into different treatment groups.
# Evaluation of compounds. […] Control mice received intratumoral injections of PBS containing 5% glucose and/or 5% DMSO (vehicle) as indicated. Treated and untreated tumors were measured twice a week with calipers and the volume was calculated (length×width^2/2). […] When right and left tumors reached a diameter of 80-100 mm, mice were randomized to three groups. […] The control, untreated third-party tumor was untreated in all groups.
smiles,measurement,setting,value
"Cc1ccc2c(=O)c3cccc(CC(=O)O)c3oc2c1C [DMXAA, 5,6-dimethylxanthenone-4-acetic acid]","circulating type I Interferons, IL-12, IL-18, TNFalpha (TNFα) and CXCL10",[1],either did not cause systemic circulating elevations or only enhanced those observed upon treatment with BO-112
same,response of directly injected tumors to the treatment,MC38 or B16.OVA cells,remarkably responded

# From patent US20220313724A1, “COMPOSITIONS FOR INTRATUMORAL ADMINISTRATION AND RELATED METHODS” (HIGHLIGHT THERAPEUTICS, S.L., priority 2021, published 2022)
